Patent US20260150838A1, “ASCAROSIDE DERIVATIVES” (Ascribe Bioscience Inc., priority 2023, published 2026)
Values joined by “and” are separate entries in the source; they are usually repeats but may differ in a detail not shown here. Equal entries are not always repeated.

Experiments:
Bipolaris sorokiniana = test: wheat pathogen assay (fungal infection of wheat seedlings); assay type: in vivo; settings: FIG. 1; for infection symptoms (symptomatic areas relative to the total leaf area) compared to mock: wheat cv. Louise sprayed with 1 μM solution in 0.1% Tween-20, inoculated 48 hours later with Bipolaris sorokiniana spores; for efficacy in reducing fungal infection relative to ascr #18: wheat, 1 μM solutions
Experimental: The products of Examples 1, 1a to 1, 1c (hereafter referred to as compounds 1a, 1b, and 1c) were evaluated in a wheat pathogen assay to assess the potential of these analogs to prevent crop damage caused by a fungal pathogen. Wheat seeds of cv. Louise were planted in potting soil and grown for two weeks in a growth chamber at 26° C. and 23° C., respectively, with 16 hours of light. After two weeks, the plants were sprayed with a 1 μM solution of ascr #18, or compounds 1a, 1b, or 1c containing 0.1% (v/v) Tween®-20 in water solution, or with a mock solution only containing 0.1% (v/v) Tween®-20. 48 hours after treatment, the wheat plants were inoculated with a Bipolaris sorokiniana spore solution (with 15000 spores/ml) and placed in a dark grow tent with high humidity (>80% RH) for 24 hours at 23° C. Subsequently, the plants were moved to a high humidity environment (>80% RH) at 23° C. and 12 hours of light and dark until fungal infection was visible on the leaves of the mock-treated plants (usually after about four days). Symptoms were evaluated by photographing the infected leaves and processing the images through machine learning image analysis software (Ilastik) to determine the symptomatic areas relative to the total leaf area. […] The infection levels in the treated plants were similar to those treated with 1 μM ascr #18. […] In FIG. 1, error bars depict standard error of the mean for a total n≥35 plants across 4 independent experiments. Outliers were removed with the GraphPad ROUT method, and significance determined by a one-way ANOVA test.

[1] = uptake and metabolism of ascaroside amides in alfalfa seedlings (LC-MS of tissue extracts); assay type: in vivo; settings: for hydrolysis or metabolism by the plant: alfalfa plants, timeframe shown (24 h + 4 h)
Experimental: Ascaroside analogs 1a, 1b, and 1c were also evaluated in alfalfa seedlings to assess whether plants take up these analogs and whether they are hydrolyzed or metabolized to other ascarosides (specifically to ascr #18 and/or ascr #18 metabolites). The ascr #18 metabolism was evaluated by assaying the plant tissues for the known ascaroside metabolite ascr #9.
(§1) Alfalfa seeds were germinated in the dark on culture plates (10 seeds per plate) containing Gelzan growth medium and were allowed to grow for 3-4 days before treatment. Treatment consisted of flooding the plates with 10 μM aqueous solutions of one of the ascaroside analogs 1a, 1b, or 1c, with ascr #18 (as a positive control), or with plain water as a mock treatment (5 ml total volume, solutions prepared in MQ water). Each experiment was performed in duplicate. After 24 hours, the plates were moved to an illuminated growth chamber for 4 hours before sampling.
Sprouts were collected, thoroughly rinsed with MQ water, dried, flash-frozen, and homogenized. The homogenized tissues were extracted with 100% ethanol and the extracts were analyzed using high-resolution liquid chromatography-mass spectrometry (LC-MS). LC-MS analysis was performed using a Dionex 3000 UPLC coupled with a Thermo Q Exactive high-resolution mass spectrometer equipped with a HESI ion source. To measure ascarosides, samples were chromatographed using an Agilent Zorbax Eclipse column (150 mm×2.1 mm, particle size 1.98 μm) maintained at 40° C. with a 0.5 ml/min flow rate. Solvent A: 0.1% formic acid in water; Solvent B: 0.1% formic acid in acetonitrile. A solvent mixture using 1% B was used for 1.5 min after injection, followed by a linear gradient up to 99% B at 9.5 min, followed by 0.75 min of 99% B, then back to 1% B over 0.5 min, and finally held at 1% B for an additional 1.25 min to re-equilibrate the column (total time: 12 min, with needle washing and file writing: ˜14 min). Mass spectrometer parameters: spray voltage (−3.0 kV or +3.5 kV); capillary temperature 380° C.; probe heater temperature 400° C.; sheath, auxiliary, and sweep gas 60, 20, and 2 AU, respectively—S-Lens RF level: 50, resolution 120,000 at m/z 200, AGC target 3E6. Samples were injected and analyzed in negative electrospray ionization mode with an m/z range of 100-1000. Ascr #18 (C17H32O6) ionizes in negative ion mode as C17H31O6, m/z=331.2126, retention time 6 minutes using the above chromatographic conditions. Samples were also analyzed in positive ionization mode.
(§2) The treatment solutions used to treat the sprouts were also analyzed assayed and the results are shown in the Column of Table 1 labeled “Input” In each case, only the analog, or ascr #18 respectively is detected, indicating the molecules are stable in the treatment solutions.

[2] = LC-MS analysis of the treatment solutions (Input); assay type: physicochemical; settings: 10 μM aqueous treatment solutions used to treat the sprouts; Rep1/Rep2
Experimental: as §1
Sprouts were collected, thoroughly rinsed with MQ water, dried, flash-frozen, and homogenized. The homogenized tissues were extracted with 100% ethanol and the extracts were analyzed using high-resolution liquid chromatography-mass spectrometry (LC-MS). […] Samples were injected and analyzed in negative electrospray ionization mode with an m/z range of 100-1000. […] Samples were also analyzed in positive ionization mode.
as §2

SMILES | infection symptoms (symptomatic areas relative to the total leaf area) compared to mock (Bipolaris sorokiniana) | efficacy in reducing fungal infection relative to ascr #18 (Bipolaris sorokiniana) | hydrolysis or metabolism by the plant [1] | uptake by plants ([1]; alfalfa sprouts, 10 μM) | half-life in the plant relative to ascr #18 ([1]; alfalfa, inferred from LC-MS data of Table 1) | Input (LCMS detector response for diagnostic ion of the analog or ascr#18) [2]
C[C@H](CCCCCCCCC(=O)NCCO)O[C@@H]1O[C@@H](C)[C@H](O)C[C@H]1O [1b, (R)-10-(((2R,3R,5R,6S)-3,5-dihydroxy-6-methyltetrahydro-2H-pyran-2-yl)oxy)-N-(2-hydroxyethyl)-undecanamide] | reduced infection symptoms | comparable to that of ascr #18 | hydrolyzed or metabolized by the plant |  |  | 
C[C@H](CCCCCCCCC(N)=O)O[C@@H]1O[C@@H](C)[C@H](O)C[C@H]1O [1c, (R)-10-(((2R,3R,5R,6S)-3,5-dihydroxy-6-methyltetrahydro-2H-pyran-2-yl)oxy)-undecanamide] | reduced infection symptoms | comparable to that of ascr #18 | hydrolyzed or metabolized by the plant |  |  | 
CCN(CC)C(=O)CCCCCCCC[C@@H](C)O[C@@H]1O[C@@H](C)[C@H](O)C[C@H]1O [compound 1a, (R)-10-(((2R,3R,5R,6S)-3,5-dihydroxy-6-methyltetrahydro-2H-pyran-2-yl)oxy)-N,N-diethylundecanamide] | reduced infection symptoms | comparable to that of ascr #18 | not hydrolyzed or metabolized | taken up by plants | longer half life than ascr #18 or the other analogs tested | 4.03E+06 and 6.78E+06
